Assay results: patent US20230124862A1, “BISMUTH THIOL COMPOUNDS AND COMPOSITIONS AND METHODS OF TREATING MICROBIAL CO-INFECTIONS” (Microbion Corporation, priority 2020, published 2023)
In brackets after ≈: the same amount, converted by molar mass.

Key:
[1] = Particle size distribution of BisEDT samples vs processing conditions; format: physicochemical
fungal pathogens = test: Antifungal activity, NIH/NIAID sponsored study; format: cell-based; settings: for Antifungal activity, MIC 50%: 50% endpoint; for Antifungal activity, MIC 100%: 100% endpoint
Haemophilus influenzae = test: Broth microdilution MIC, Haemophilus influenzae clinical isolates; format: cell-based
Candida krusei = test: Antifungal broth microdilution (Example 13); format: cell-based; settings: for MIC2: 50% inhibition; for MIC0: complete inhibition
[2] = particle size distribution of BisEDT samples
[3] = C. krusei ATCC 14243, Susceptible
[4] = C. krusei ATCC 96685, Susceptible
[5] = C. krusei MMX 7125, Susceptible
[6] = C. krusei MMX 7128, Susceptible
[7] = C. krusei MMX 7141, Susceptible
[8] = C. krusei MMX 7155, Susceptible
[9] = C. krusei MMX 7563, Susceptible
[10] = C. krusei MMX 9878, MICA-I, VORI-I

## C1C[S][Bi]([S]CC[S][Bi]2[S]CC[S]2)[S]1 [Sample 7]
[1]; crystalline BisEDT samples
  D(10): 0.39 μm
  D(50): 1.3 μm
  D(90): 1.6 μm
  D[4, 3]: 1.4 μm
[1]; [2]
  D(10): 0.39 μm
  D(50): 1.3 μm
  D(90): 1.6 μm
  D[4, 3]: 1.4 μm

## C1C[S][Bi]([S]CC[S][Bi]2[S]CC[S]2)[S]1 [Sample 12]
[1]; crystalline BisEDT samples
  D(10): 0.37 μm
  D(50): 1.2 μm
  D(90): 2.4 μm
  D[4, 3]: 1.3 μm
[1]; [2]
  D(10): 0.37 μm
  D(50): 1.2 μm
  D(90): 2.4 μm
  D[4, 3]: 1.3 μm

## C1C[S][Bi]([S]CC[S][Bi]2[S]CC[S]2)[S]1 [BisEQT]
Fungal pathogens; A. fumigatus AF1
  Antifungal activity, MIC 50%: 8 µg/mL
  Antifungal activity, MIC 100%: 16 µg/mL
Fungal pathogens; A. fumigatus AF2
  Antifungal activity, MIC 50%: 4 µg/mL
  Antifungal activity, MIC 100%: 16 µg/mL
Fungal pathogens; A. fumigatus AF3
  Antifungal activity, MIC 50%: 4 µg/mL
  Antifungal activity, MIC 100%: 16 µg/mL
Fungal pathogens; C. albicans CA1
  Antifungal activity, MIC 50%: 4 µg/mL
  Antifungal activity, MIC 100%: 8 µg/mL
Fungal pathogens; C. albicans CA2
  Antifungal activity, MIC 50%: 2 µg/mL
  Antifungal activity, MIC 100%: 8 µg/mL
Fungal pathogens; C. albicans CA3
  Antifungal activity, MIC 50%: 4 µg/mL
  Antifungal activity, MIC 100%: 16 µg/mL
Fungal pathogens; C. auris Cau1
  Antifungal activity, MIC 50%: 4 µg/mL
  Antifungal activity, MIC 100%: 16 µg/mL
Fungal pathogens; C. auris Cau2
  Antifungal activity, MIC 50%: 2 µg/mL
  Antifungal activity, MIC 100%: 8 µg/mL
Fungal pathogens; C. auris Cau3
  Antifungal activity, MIC 50%: 4 µg/mL
  Antifungal activity, MIC 100%: 8 µg/mL
Fungal pathogens; C. krusei ATCC6258
  Antifungal activity, MIC 50%: 1 µg/mL
  Antifungal activity, MIC 100%: 4 µg/mL
Fungal pathogens; C. neoformans CN1
  Antifungal activity, MIC 50%: 2 µg/mL
  Antifungal activity, MIC 100%: 8 µg/mL
Fungal pathogens; C. neoformans CN2
  Antifungal activity, MIC 50%: 4 µg/mL
  Antifungal activity, MIC 100%: 8 µg/mL
Fungal pathogens; C. neoformans CN3
  Antifungal activity, MIC 50%: 4 µg/mL
  Antifungal activity, MIC 100%: 16 µg/mL
Fungal pathogens; C. parapsilosis ATCC22019
  Antifungal activity, MIC 50%: 1 µg/mL
  Antifungal activity, MIC 100%: 4 µg/mL
Fungal pathogens; P. variotii CLSI QC
  Antifungal activity, MIC 50%: 4 µg/mL
  Antifungal activity, MIC 100%: 16 µg/mL
Fungal pathogens; R. arrhizus RA1
  Antifungal activity, MIC 50%: 8 µg/mL
  Antifungal activity, MIC 100%: 16 µg/mL
Fungal pathogens; R. arrhizus RA2
  Antifungal activity, MIC 50%: 4 µg/mL
  Antifungal activity, MIC 100%: 8 µg/mL
Fungal pathogens; R. arrhizus RA3
  Antifungal activity, MIC 50%: 4 µg/mL
  Antifungal activity, MIC 100%: 8 µg/mL

## C1C[S][Bi]([S]CC[S][Bi]2[S]CC[S]2)[S]1 [Sample 9]
[1]; crystalline BisEDT samples
  D(10): 0.67 μm
  D(50): 1.0 μm
  D(90): 1.9 μm
  D[4, 3]: 1.1 μm
[1]; [2]
  D(10): 0.67 μm
  D(50): 1.0 μm
  D(90): 1.9 μm
  D[4, 3]: 1.1 μm

## C1C[S][Bi]([S]CC[S][Bi]2[S]CC[S]2)[S]1 [Sample 10]
[1]; crystalline BisEDT samples
  D(10): 0.36 μm
  D(50): 0.88 μm
  D(90): 1.7 μm
  D[4, 3]: 0.97 μm
[1]; [2]
  D(10): 0.36 μm
  D(50): 0.88 μm
  D(90): 1.7 μm
  D[4, 3]: 0.97 μm

## C1C[S][Bi]([S]CC[S][Bi]2[S]CC[S]2)[S]1 [Sample 3]
[1]; crystalline BisEDT samples
  D(10): 0.59 μm
  D(50): 1.9 μm
  D(90): 4.5 μm
  D[4, 3]: 2.3 μm
[1]; [2]
  D(10): 0.59 μm
  D(50): 1.9 μm
  D(90): 4.5 μm
  D[4, 3]: 2.3 μm

## C1C[S][Bi]([S]CC[S][Bi]2[S]CC[S]2)[S]1 [Sample 8]
[1]; crystalline BisEDT samples
  D(10): 0.36 μm
  D(50): 1.0 μm
  D(90): 1.8 μm
  D[4, 3]: 1.0 μm
[1]; [2]
  D(10): 0.36 μm
  D(50): 1.0 μm
  D(90): 1.8 μm
  D[4, 3]: 1.0 μm

## C1C[S][Bi]([S]CC[S][Bi]2[S]CC[S]2)[S]1 [Sample 6]
[1]; crystalline BisEDT samples
  D(10): 0.34 μm
  D(50): 0.87 μm
  D(90): 1.8 μm
  D[4, 3]: 0.98 μm
[1]; [2]
  D(10): 0.34 μm
  D(50): 0.87 μm
  D(90): 1.8 μm
  D[4, 3]: 0.98 μm

## C1C[S][Bi]([S]CC[S][Bi]2[S]CC[S]2)[S]1 [Sample 2]
[1]; crystalline BisEDT samples
  D(10): 0.58 μm
  D(50): 1.7 μm
  D(90): 3.9 μm
  D[4, 3]: 2.0 μm
[1]; [2]
  D(10): 0.58 μm
  D(50): 1.7 μm
  D(90): 3.9 μm
  D[4, 3]: 2.0 μm

## C1C[S][Bi]([S]CC[S][Bi]2[S]CC[S]2)[S]1 [Sample 13]
[1]; crystalline BisEDT samples
  D(10): 0.36 μm
  D(50): 0.98 μm
  D(90): 2.1 μm
  D[4, 3]: 1.2 μm
[1]; [2]
  D(10): 0.36 μm
  D(50): 0.98 μm
  D(90): 2.1 μm
  D[4, 3]: 1.2 μm

## C1C[S][Bi]([S]CC[S][Bi]2[S]CC[S]2)[S]1 [Sample 1]
[1]; crystalline BisEDT samples
  D(10): 0.80 μm
  D(50): 2.4 μm
  D(90): 5.9 μm
  D[4, 3]: 2.9 μm
[1]; [2]
  D(10): 0.80 μm
  D(50): 2.4 μm
  D(90): 5.9 μm
  D[4, 3]: 2.9 μm

## CO/N=C(\C(=O)N[C@@H]1C(=O)N2C(C(=O)O)=C(COC(N)=O)CS[C@H]12)c1ccco1 [CFA]
Haemophilus influenzae; H. influenzae MMX 0797, BLNAR
  MIC: 4 µg/mL (≈ 9.43 µM)
Haemophilus influenzae; H. influenzae MMX 1224 (ATCC 49247)
  MIC: 4 µg/mL (≈ 9.43 µM)
Haemophilus influenzae; H. influenzae MMX 1302
  MIC: 2 µg/mL (≈ 4.71 µM)
Haemophilus influenzae; H. influenzae MMX 1304
  MIC: 64 µg/mL (≈ 151 µM)
Haemophilus influenzae; H. influenzae MMX 1740
  MIC: 8 µg/mL (≈ 18.9 µM)
Haemophilus influenzae; H. influenzae MMX 1741
  MIC: 4 µg/mL (≈ 9.43 µM)
Haemophilus influenzae; H. influenzae MMX 2795, BLNAR
  MIC: 1 µg/mL (≈ 2.36 µM)
Haemophilus influenzae; H. influenzae MMX 2796, BLNAR
  MIC: 4 µg/mL (≈ 9.43 µM)
Haemophilus influenzae; H. influenzae MMX 2798, BLNAR
  MIC: 4 µg/mL (≈ 9.43 µM)
Haemophilus influenzae; H. influenzae MMX 2799, BLNAR
  MIC: 8 µg/mL (≈ 18.9 µM)
Haemophilus influenzae; H. influenzae MMX 5458
  MIC: 16 µg/mL (≈ 37.7 µM)
Haemophilus influenzae; H. influenzae MMX 5461
  MIC: 8 µg/mL (≈ 18.9 µM)
Haemophilus influenzae; H. influenzae MMX 5469
  MIC: 4 µg/mL (≈ 9.43 µM)
Haemophilus influenzae; H. influenzae MMX 5494
  MIC: 0.5 µg/mL (≈ 1.18 µM)
Haemophilus influenzae; H. influenzae MMX 5495
  MIC: 2 µg/mL (≈ 4.71 µM)
Haemophilus influenzae; H. influenzae MMX 5499
  MIC: 1 µg/mL (≈ 2.36 µM)

## C1C[S][Bi]([S]CC[S][Bi]2[S]CC[S]2)[S]1 [Sample 4]
[1]; crystalline BisEDT samples
  D(10): 0.44 μm
  D(50): 1.48 μm
  D(90): 3.1 μm
  D[4, 3]: 1.7 μm
[1]; [2]
  D(10): 0.44 μm
  D(50): 1.48 μm
  D(90): 3.1 μm
  D[4, 3]: 1.7 μm

## C1C[S][Bi]([S]CC[S][Bi]2[S]CC[S]2)[S]1 [BisEBT]
Candida krusei; C. krusei ATCC 6258, MICA-I
  MIC2: 0.5 µg/mL
  MIC0: 1 µg/mL
Candida krusei; [3]
  MIC2: 0.5 µg/mL
  MIC0: 1 µg/mL
Candida krusei; [4]
  MIC2: 0.25 µg/mL
  MIC0: 0.5 µg/mL
Candida krusei; [5]
  MIC2: 0.5 µg/mL
  MIC0: 1 µg/mL
Candida krusei; [6]
  MIC2: 0.5 µg/mL
  MIC0: 1 µg/mL
Candida krusei; [7]
  MIC2: 0.5 µg/mL
  MIC0: 1 µg/mL
Candida krusei; C. krusei MMX 7153, MICA-R
  MIC2: 0.5 µg/mL
  MIC0: 1 µg/mL
Candida krusei; [8]
  MIC2: 0.5 µg/mL
  MIC0: 1 µg/mL
Candida krusei; [9]
  MIC2: 0.5 µg/mL
  MIC0: 1 µg/mL
Candida krusei; [10]
  MIC2: 0.5 µg/mL
  MIC0: 1 µg/mL

## C1C[S][Bi]([S]CC[S][Bi]2[S]CC[S]2)[S]1 [Sample 5]
[1]; crystalline BisEDT samples
  D(10): 0.33 μm
  D(50): 0.72 μm
  D(90): 1.6 μm
  D[4, 3]: 0.86 μm
[1]; [2]
  D(10): 0.33 μm
  D(50): 0.72 μm
  D(90): 1.6 μm
  D[4, 3]: 0.86 μm

## C1C[S][Bi]([S]CC[S][Bi]2[S]CC[S]2)[S]1 [Sample 14]
[1]; crystalline BisEDT samples
  D(10): 0.36 μm
  D(50): 1.0 μm
  D(90): 2.1 μm
  D[4, 3]: 1.2 μm
[1]; [2]
  D(10): 0.36 μm
  D(50): 1.0 μm
  D(90): 2.1 μm
  D[4, 3]: 1.2 μm

## C1C[S][Bi]([S]CC[S][Bi]2[S]CC[S]2)[S]1 [Sample 11]
[1]; crystalline BisEDT samples
  D(10): 0.38 μm
  D(50): 1.2 μm
  D(90): 2.4 μm
  D[4, 3]: 1.4 μm
[1]; [2]
  D(10): 0.38 μm
  D(50): 1.2 μm
  D(90): 2.4 μm
  D[4, 3]: 1.4 μm

## C1C[S][Bi]([S]CC[S][Bi]2[S]CC[S]2)[S]1 [Sample 15]
[1]; crystalline BisEDT samples
  D(10): 0.32 μm
  D(50): 0.72 μm
  D(90): 1.6 μm
  D[4, 3]: 0.86 μm
[1]; [2]
  D(10): 0.32 μm
  D(50): 0.72 μm
  D(90): 1.6 μm
  D[4, 3]: 0.86 μm
